Laboratory results published in the supplement of paper PMC10307832.

Tests used:
Assay in all cases: relative viability (nuclei count vs DMSO), 5 days (fraction); higher = more cells survive
[1] = compound: C1=CC=C(C(=C1)C2=CC=C(C=C2)C3=CSC4=C3C(=C(C(=O)N4)C#N)O)O + NC(=O)Nc1cc(-c2cccc(F)c2)sc1C(=O)N[C@H]1CCCNC1 [AZD7762] (partner 0.2 µM)
In short: (§1)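 Nuclei were stained with Hoechst during a one-step fixation (final 0.05% Triton X-100, 1% formaldehyde, 1 ug/ml Hoechst) carried out 5 days after dosing, then counted on 4× images. The cells, lung cancer lines in 1536-well plates, had been dosed by pin tool the day after seeding with one drug alone or a fixed anchor-drug dose plus five library-drug doses (not always all listed) in √10 steps. Relative viability is the nuclei count in treated wells divided by that in vehicle wells, and each value is the median of duplicate plates.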

[2] = compound: C1=CC=C(C(=C1)C2=CC=C(C=C2)C3=CSC4=C3C(=C(C(=O)N4)C#N)O)O + Cc1nc(NC(=O)N2CCC[C@H]2C(N)=O)sc1-c1ccnc(C(C)(C)C(F)(F)F)c1 [Alpelisib] (partner 2 µM)
In short: as §1

TGX 221 + Phenformin = compound: CC1=CN2C(=O)C=C(N=C2C(=C1)C(C)NC3=CC=CC=C3)N4CCOCC4 [TGX 221] + N=C(N)NC(=N)NCCc1ccccc1 [Phenformin] (partner 250 µM)
In short: as §1

Ricolinostat + Dasatinib = compound: O=C(CCCCCCNC(=O)c1cnc(N(c2ccccc2)c2ccccc2)nc1)NO [Ricolinostat] + Cc1nc(Nc2ncc(C(=O)Nc3c(C)cccc3Cl)s2)cc(N2CCN(CCO)CC2)n1 [Dasatinib] (partner 0.075 µM)
In short: as §1

[3] = compound: C1=CC=C(C(=C1)C2=CC=C(C=C2)C3=CSC4=C3C(=C(C(=O)N4)C#N)O)O + Nc1ncn([C@H]2C[C@H](O)[C@@H](CO)O2)c(=O)n1 [Decitabine] (partner 2 µM)
In short: as §1

For NCI-H1792, which relative viability ([1]; first compound 0.253 µM) is on record?
Its relative viability is 0.953.

And the relative viability ([1]; first compound 0.8 µM)?
The relative viability was 0.329.

And the relative viability ([1]; first compound 2.53 µM)?
The relative viability was 0.551.

What about the relative viability ([1]; first compound 8 µM) of the same cell line?
Its relative viability is 0.532.

What about the relative viability ([2]; first compound 0.253 µM) of the same cell line?
Its relative viability is 0.638.

What about the relative viability ([2]; first compound 0.8 µM) of the same cell line?
Its relative viability is 0.744.

What about the relative viability ([2]; first compound 2.53 µM) of the same cell line?
Its relative viability is 0.612.

And the relative viability ([2]; first compound 8 µM)?
The relative viability was 0.336.

And the relative viability (TGX 221 + Phenformin; first compound 0.8 µM)?
The relative viability was 0.249.

What about the relative viability (TGX 221 + Phenformin; first compound 2.53 µM) of the same cell line?
Its relative viability is 0.319.

And the relative viability (TGX 221 + Phenformin; first compound 8 µM)?
Its relative viability is 0.283.

What about the relative viability (Ricolinostat + Dasatinib; first compound 0.253 µM) of the same cell line?
Its relative viability is 0.829.

What about the relative viability (Ricolinostat + Dasatinib; first compound 0.8 µM) of the same cell line?
Its relative viability is 0.718.

And the relative viability (Ricolinostat + Dasatinib; first compound 2.53 µM)?
Its relative viability is 0.882.

And the relative viability ([3]; first compound 0.253 µM)?
The relative viability was 0.715.

What about the relative viability ([3]; first compound 0.8 µM) of the same cell line?
The relative viability was 0.482.

And the relative viability ([3]; first compound 2.53 µM)?
The relative viability was 0.617.

And the relative viability ([3]; first compound 8 µM)?
The relative viability was 0.438.
